pIC50: −log10 of the molar value. Structures can show the parent of a compound that is named as a salt. Where two headings read alike, the source gives them in different places.
What was measured:
[1] = tested on: bradykinin-induced writhing response; assay: inhibition of the writhing response induced in mice by exogenous administration of bradykinin; type: in vivo, mice (male CD-1)
BK2 receptor = molecular target: T1, BK2 receptor (Cavia porcellus, UniProt O70526); assay: competition with tritiated bradykinin (3H-BK) for BK2 receptor sites in guinea pig ileum; type: binding; settings: for Activity (reference compounds, 3H-BK binding): screened at 100 μM
T1 construct: The distal portion of the ileum is removed and placed in ice cold homogenization buffer; from tissue; host or cells: distal ileum of adult male Hartley strain guinea pig, washed 50,000×g pellet of homogenate
T1 sequence (O70526 1-372): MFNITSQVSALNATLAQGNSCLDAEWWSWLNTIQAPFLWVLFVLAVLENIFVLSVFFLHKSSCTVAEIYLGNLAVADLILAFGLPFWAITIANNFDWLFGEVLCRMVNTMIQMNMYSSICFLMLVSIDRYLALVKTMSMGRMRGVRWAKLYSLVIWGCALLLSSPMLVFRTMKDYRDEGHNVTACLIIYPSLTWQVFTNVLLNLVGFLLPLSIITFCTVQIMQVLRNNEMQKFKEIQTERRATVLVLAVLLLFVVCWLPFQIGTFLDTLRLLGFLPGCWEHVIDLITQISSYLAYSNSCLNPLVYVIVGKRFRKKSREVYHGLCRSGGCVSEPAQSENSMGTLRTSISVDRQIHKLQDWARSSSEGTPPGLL
Procedure: This assay is employed to identify compounds which compete specifically with tritiated bradykinin (^3 H-BK) for BK2 receptor sites in guinea pig ileum.
The assay is carried out as follows:
A 350-500 g adult male Hartley strain guinea pig is euthanized by stunning followed by decapitation. The distal portion of the ileum is removed and placed in ice cold homogenization buffer [25 mM N-tris(hydroxymethyl)methyl-2-aminoethane sulfonic acid (TES) 1 mM 1,10-phenanthroline, adjusted to pH 6.8 with NH4 OH]. The contents of the ileal lumen are rinsed out with cold homogenization buffer. The tissue is cut into small pieces and homogenized in 20 volumes of homogenization buffer using a Brinkmann Polytron homogenizer equipped with a PTA 10 TS generator. The tissue is homogenized for 10 seconds, three times, at setting 5.
The homogenate is filtered through a surgical gauze sponge and centrifuged at 50,000×g for 20 minutes at 4° C. The supernatant fluid is discarded and the homogenization and centrifugation procedure is repeated. After discarding the supernatant fluid, the final pellet is resuspended in 40 volumes of assay buffer [25 mM TES, pH=6.8, 1 mM 1,10-phenanthroline, 1 mM dithiothreitol, 2 μM captopril, 140 μg/ml bacitracin and 0.1% bovine serum albumin (BSA)]. The homogenate is filtered once more through a surgical gauze sponge and kept on ice until use.
The assay is performed using only polypropylene pipet tips and polypropylene test tubes. Each tube receives 100 μl of 800 pM ^3 H-BK, 100 μl of the test compound solution or vehicle (TES assay buffer), and 100 μl of 25 mg/ml tissue homogenate in a total volume of 1 ml. The final concentration of ^3 H-BK is 80 pM. The final tissue concentration is 2.5 mg/ml. Compounds are screened at 100 μM. Nonspecific binding is determined in the presence of 1 μM unlabeled bradykinin. All determinations are made in triplicate. Three 100 μl aliquots of the 800 pM 3 H-BK working solution are added directly to scintillation vials to determine the total added radioactivity.
The tubes are incubated for 90 minutes at 25° C. while being gently agitated on an orbital shaker. Bound ligand is separated from free ligand, using Whatman GF/B glass fiber filters (pretreated with 0.1% aqueous polyethyleneimine made neutral with HCl). A Brandel receptor binding harvester is used. Assay tubes and glass fiber filters are rinsed three times with 3 ml of cold physiological saline.
The filter discs are transferred to 20 ml scintillation vials. Ten ml of aqueous sample LSC cocktail (Aquassure, New England Nuclear) is added to each vial. After capping, the vials are agitated for 5 minutes on an orbital shaker. The samples are counted for ten minutes in a refrigerated liquid scintillation counter.
The following values are obtained:
Bx Total binding in the presence of the test compound
C Control specific binding. C=Bt -Bns
D Specific binding in the presence of the test compound. D=Bx -Bns
Percent of control: D/C×100
Percent Inhibition: (1-D/C)×100
After calculation of Percent of Control for each dilution, the values are analyzed and the IC50 with its 95% confidence limits is determined on a Hewlett Packard 9816 computer using the program "PS-NONLIN" (generalizednon-linear regression with inverse prediction and graphics).

[2] = guinea pig ileum homogenate, 80 pM 3H-BK, 90 min, 25° C., pH 6.8, read-out: IC50
[3] = 30 mg/kg i.p., bradykinin 0.5 mg/kg i.p. after PGE2
[4] = bradykinin 0.5 mg/kg i.p. after PGE2
[5] = guinea pig ileum homogenate, 80 pM 3H-BK

| Compound | pIC50 (BK2 receptor; [2]) | % Inhibition at 30 mg/kg i.p. [1, 3] | other results |
| --- | --- | --- | --- |
| CN1CC[C@]23c4c5ccc(O)c4O[C@H]2[C@@H](O)C=C[C@H]3[C@H]1C5 [Morphine, reference compound] | – | – | ED50 ([1]; Mus musculus, po): 4.5 mg/kg |
| Clc1ccc2c(Nc3ccc(CNC4CCN(Cc5ccccc5)CC4)cc3)ccnc2c1 [Example 10, 7-Chloro-N-[4-[[[1-(phenylmethyl)-4-piperidinyl]amino]methyl]phenyl]-4-quinolinamine] | 5.40 | 2.5% | – |
| CCCCCCCCCCCC(=O)N(Cc1ccc(Nc2ccnc3cc(Cl)ccc23)cc1)C1CCN(CCCCCC(=O)N(CC)CC)CC1.Cl [Example 16, 4-[[[4-[(7-Chloro-4-quinolinyl)amino]phenyl]methyl](1-oxododecyl)-amino]-N,N-diethyl-1-piperidinehexanamide, hydrochloride] | 5.42 | 30% | – |
| Thi^5,8 --DPhe^7 --BK [reference compound] | – | – | pIC50 (BK2 receptor; guinea pig ileum homogenate, 80 pM 3H-BK, 90 min, 25° C., pH 6.8, read-out: IC50 (reference compounds)): 7.16 |
| CCCCN1CCC(NCc2ccc(Nc3ccnc4cc(Cl)ccc34)cc2)CC1 [Example 1, N-[4-[[(1-Butyl-4-piperidinyl)amino]methyl]phenyl]-7-chloro-4-quinolinamine] | 5.08 | 13.1% | % Inhibition at 200 mg/kg p.o. [1, 4]: 7.1% |
| CCCCN1CCC(N(Cc2ccc(Nc3ccnc4cc(Cl)ccc34)cc2)C(=O)C(F)(F)C(F)(F)C(F)(F)F)CC1.Cl [Example 6, N-(1-Butyl-4-piperidinyl)-N-[[4-[(7-chloro-4-quinolinyl)amino]phenyl]-methyl]-2,2,3,3,4,4,4-heptafluorobutanamide, hydrochloride] | – | – | pIC50 (BK2 receptor): 5.37; % Inhibition at 30 mg/kg i.p. ([1]; mouse, in vivo): 68.0% |
| CCCC(=O)N(Cc1ccc(Nc2ccnc3cc(Cl)ccc23)cc1)C1CCN(CCCCCC(=O)N(CC)CC)CC1 [Example 14, 4-[[[4-[(7-Chloro-4-quinolinyl)amino]phenyl]methyl](1-oxobutyl)amino]-N,N-diethyl-1-piperidinehexanamide, 0.56 hydrate] | 5.26 | 81% | % Inhibition at 200 mg/kg p.o. [1, 4]: 46% |
| CCN(CC)C(=O)c1ccc(CN2CCC(NCc3ccc(Nc4ccnc5cc(Cl)ccc45)cc3)CC2)cc1.Cl [Example 9, 4-[[4-[[[4-[(7-Chloro-4-quinolinyl)amino]phenyl]methyl]amino]-1-piperidinyl]methyl]-N,N-diethylbenzamide, hydrochloride] | 6.11 | 0.0% | – |
| CCN(CC)C(=O)CCCCCN1CCC(NCc2ccc(Nc3ccnc4cc(Cl)ccc34)cc2)CC1 [Example 13, 4-[[[4-[(7-Chloro-4-quinolinyl)amino]phenyl]methyl]amino]-N,N-diethyl-1-piperidinehexanamide, tris(trifluoroacetate), 0.42 hydrate] | 5.41 | 43% | – |
| DesArg^9 --Leu^8 BK: BK1 Antagonist [reference compound] | – | – | Activity (reference compounds, 3H-BK binding) (BK2 receptor; [5]): No Activity |
| CC(C)Cc1ccc(C(C)C(=O)O)cc1 (centres unmarked) [Ibuprofen, reference compound] | – | – | % inhibition of writhing ([1]; at 200 mg/kg p.o. (reference compound ibuprofen)): 43% |
| CCCCN1CCC(N(Cc2ccc(Nc3ccnc4cc(Cl)ccc34)cc2)C(=O)CCC)CC1.Cl [Example 8, N-(1-Butyl-4-piperidinyl)-N-[[4-[(7-chloro-4-quinolinyl)-amino]phenyl]methyl]butanamide, hydrochloride] | 5.92 | 80.0% | % Inhibition at 200 mg/kg p.o. [1, 4]: 58.0% |
| O=C(c1ccccc1)N1CCC(NCc2ccc(Nc3ccnc4cc(Cl)ccc34)cc2)CC1 [Example 15, 1-Benzoyl-N-[[[4-[(7-chloro-4-quinolinyl)amino]phenyl]methyl]-4-piperidinanaminetrifluoroacetate (1:2), 1.03 hydrate] | 4.86 | 43% | – |
| CC(C(=O)O)c1cccc(C(=O)c2ccccc2)c1 (centres unmarked) [Ketoprofen, reference compound] | – | – | % inhibition of writhing ([1]; mouse, in vivo, po, 100 mg/kg): 52% |
| CCCCN1CCC(N(Cc2ccc(Nc3ccnc4cc(Cl)ccc34)cc2)C(=O)C(F)(F)F)CC1.Cl [Example 7, N-(1-butyl-4-piperidinyl)-N-[[4-[(7-chloro-4-quinolinyl)amino]-phenyl]methyl]-2,2,2-trifluoroacetamide, hydrochloride] | 5.62 | 44.0% | – |
| CCCCN1CCC(N(Cc2ccc(Nc3ccnc4cc(Cl)ccc34)cc2)C(C)=O)CC1 [Example 2, N-(1-Butyl-4-piperidinyl)-N-[[4-[(7-chloro-4-quinolinyl)amino]phenyl]methyl]acetamide] | 5.22 | 51.0% | % Inhibition at 200 mg/kg p.o. [1, 4]: 26.0% |
| CC(=O)Nc1ccc(O)cc1 [Acetaminophen, reference compound] | – | – | % inhibition of writhing ([1]; at 300 mg/kg p.o. (reference compound acetaminophen)): 20% |
| CCCC(=O)N(Cc1ccc(Nc2ccnc3cc(Cl)ccc23)cc1)C1CCN(Cc2ccc(C(=O)N(CC)CC)cc2)CC1 [Example 12, 4-[[4-[[[4-[(7-Chloro-4-quinolinyl)amino]phenyl]methyl]-(1-oxobutyl)amino]-1-piperidinyl]methyl]-N,N-diethylbenzamide, hydrochloride, 0.76 hydrate] | 5.57 | 5% | – |
| Des Arg^9 --BK: BK1 Agonist (RPPGFSPF; Bradykinin; UniProt P01042 381-388, looked up, fragment) [reference compound] | – | – | Activity (reference compounds, 3H-BK binding) (BK2 receptor; [5]): No Activity |
| CCCCN1CCC(N(Cc2ccc(Nc3ccnc4ccccc34)cc2)C(C)=O)CC1 [Example 3, N-(1-Butyl-4-piperidinyl)-N-[[4-(4-quinolinylamino)phenyl]methyl]acetamide] | 4.97 | – | – |
| CCCCN1CCC(N(Cc2ccc(Nc3ccnc4cc(Cl)ccc34)cc2)C(=O)c2ccccc2)CC1 [Example 4, N-(1-Butyl-4-piperidinyl)-N-[[4-[7-chloro-4-quinolinyl)amino]phenyl]methyl]benzamide, hydrochloride] | 5.70 | 40.0% | – |
| CCCCN1CCC(N(Cc2ccc(Nc3ccnc4cc(Cl)ccc34)cc2)C(=O)CCc2ccccc2)CC1.Cl [Example 5, N-(1-Butyl-4-piperidinyl)-N-[[4-[(7-chloro-4-quinolinyl)amino]phenyl]methyl]benzenepropanamide, hydrochloride] | 5.80 | 85.0% | % Inhibition at 200 mg/kg p.o. [1, 4]: 27.0% |
